The source of these data is patent EP0092830A2, “Cephalosporin derivatives, process for their preparation, pharmaceutical compositions containing them and their application” (CIBA-GEIGY AG, priority 1982, dated 1983).

For assay [1], the system named is Escherichia coli 205. Kind of assay: chemotherapeutic efficacy in vivo against systemic infection in mice (method of Zak et al.). To be noted: systemic infection in female SPF, MF2 mice. From the text:
(§1) B. Die chemotherapeutische Wirksamkeit in vivo gegen systemische Infektionen in weiblichen SPF, MF2 Mäusen wurde nach der Methode von Zak, 0. et al., 1979, Drugs Exptl. Clin. Res. 5, 45-59, ermittelt. Die gefundenen EDS50-Werte in Milligramm Substanz pro Kilogramm Maus (mg/kg) für eine Anzahl von Mikroorganismen werden für die oral (p.o.) oder subcutan (s.c.) applizierten, Testverbindungen in der Tabelle 2 angegeben.

In assay [2] the test system is Staphylococcus aureus 10 B. The assay is described as above. The note with it: systemic infection in female SPF, MF2 mice; for ED50: Staphylococcus aureus, 10B; for ED50 Staphylococcus aureus 10 B: s.c.
Excerpt: as §1

Setting [3] is: Escherichia coli, 205, po, p.o.
[4] abbreviates: Escherichia coli, 205, sc, s.c.

Consider `C=CC(=O)NCCS(=O)(=O)N[C@H](C(=O)N[C@@H]1C(=O)N2C(C(=O)O)=C(COC(N)=O)CS[C@H]12)c1csc(N)n1` [Testverbindung 42], for which the ED50 in assay [1] (setting [3]) was 2.5 mg/kg; in assay [1] (setting [4]), 0.1 mg/kg; in assay [2] (sc) it was 15 mg/kg.

Regarding `CC(=O)OCC1=C(C(=O)O)N2C(=O)[C@@H](NC(=O)C(NS(=O)(=O)CCNC=O)c3csc(N)n3)[C@H]2SC1` (stereo partly drawn) [Testverbindung 39], the ED50 in assay [1] (setting [3]) was found to be 5.5 mg/kg; in assay [1] (setting [4]), 0.8 mg/kg; in assay [2] (sc), 10 mg/kg.

In the case of `CS(=O)(=O)NC(C(=O)N[C@@H]1C(=O)N2C(C(=O)[O-])=C(C[n+]3ccc(C(N)=O)cc3)CS[C@H]12)c1csc(N)n1` (stereo partly drawn) [Testverbindung 9, 3-(4-Carbamoylpyridiniomethyl)-7ß-[(2R,S)-2-(2-aminothiazol-4-yl)-2-methansulfonylaminoacetamido]-3-cephem-4-carbonsäure], in assay [1] (s.c.), the “ED50 Escherichia coli 205” value is recorded as 25 mg/kg. In assay [2], the “ED50 Staphylococcus aureus 10 B” value is recorded as 55 mg/kg.

With `CS(=O)(=O)N[C@H](C(=O)N[C@@H]1C(=O)N2C(C(=O)O)=C(COC(N)=O)CS[C@H]12)c1csc(N)n1` [Testverbindung 40], the ED50 in assay [1] (setting [3]) came to 0.9 mg/kg; in assay [1] (setting [4]) it was 0.1 mg/kg; in assay [2] (sc) it was 3 mg/kg.

Regarding `C=CC(=O)NCCS(=O)(=O)NC(C(=O)N[C@@H]1C(=O)N2C(C(=O)O)=C(CSc3nnnn3C)CS[C@H]12)c1csc(N)n1` (stereo partly drawn) [Testverbindung 41], the ED50 in assay [1] (setting [3]) was found to be 10 mg/kg; in assay [1] (setting [4]), 2 mg/kg; in assay [2] (sc), 24 mg/kg.

Take `NCCS(=O)(=O)NC(C(=O)N[C@@H]1C(=O)N2C(C(=O)[O-])=C(CSc3nnnn3CS(=O)(=O)O)CS[C@H]12)c1csc(N)n1.[Na+]` (stereo partly drawn) [Testverbindung 6, 3-(1-Sulfomethyl-1H-tetrazol-5-ylthiomethyl)-7ß-[(2R,S)-2-(2-aminoäthansulfonylamino)-2-(2-aminothiazol-4-yl)-acetamido]-3-cephem-4-carbonsäurematriumsalz]: the figures for the “ED50 Escherichia coli 205” value in assay [1] (p.o.) and in assay [1] (s.c.) were 10 mg/kg and 6,0 mg/kg, respectively. The “ED50 Staphylococcus aureus 10 B” value in assay [2] is given as above 30 mg/kg.

On to `CC(=O)OCC1=C(C(=O)O)N2C(=O)[C@@H](NC(=O)C(NS(=O)(=O)CCNS(=O)(=O)c3ccc(N)cc3)c3csc(N)n3)[C@H]2SC1` (stereo partly drawn) [Testverbindung 47], for which the median effective dose (ED50) in assay [1] (setting [3]) is above 30 mg/kg; in assay [1] (setting [4]), 2.8 mg/kg; in assay [2] (po), 100 mg/kg; in assay [2] (sc), 5 mg/kg.

Take `CS(=O)(=O)NCCS(=O)(=O)NC(C(=O)N[C@@H]1C(=O)N2C(C(=O)O)=C(COC(N)=O)CS[C@H]12)c1csc(N)n1` (stereo partly drawn) [Testverbindung 45]: the values for the ED50 in assay [2] (po) and in assay [2] (sc) were 90 mg/kg and 55 mg/kg, respectively.

Consider `CS(=O)(=O)NC(C(=O)N[C@@H]1C(=O)N2C(C(=O)O)=C(CSc3nnnn3CS(=O)(=O)O)CS[C@H]12)c1csc(N)n1` (stereo partly drawn) [Testverbindung 44], for which the ED50 was below 1 mg/kg in assay [1] (setting [4]) and 85 mg/kg in assay [2] (sc).

Consider `NCCS(=O)(=O)NC(C(=O)N[C@@H]1C(=O)N2C(C(=O)[O-])=C(CSc3nnnn3CC(=O)O)CS[C@H]12)c1csc(N)n1.[Na+]` (stereo partly drawn) [Testverbindung 5, 3-(1-Carboxymethyl-1H-tetrazol-5-ylthiomethyl)-7ß-[(2R,S)-2-(2-aminoäthansulfonylamino)-2-(2-aminothiazol-4-yl)-acetamido]-3-cephem-4-carbonsäure-natriumsalz], for which the entries for the “ED50 Escherichia coli 205” value in assay [1] (p.o.) and in assay [1] (s.c.) were 2 mg/kg and 0,45 mg/kg, respectively. Moreover, in assay [2], the “ED50 Staphylococcus aureus 10 B” value came to 78 mg/kg.

As for `NC(=O)OCC1=C(C(=O)O)N2C(=O)C(NC(=O)C(NS(=O)(=O)CCNS(=O)(=O)c3ccc(N)cc3)c3csc(N)n3)C2SC1` (stereo not drawn) [Testverbindung 46], the ED50 was below 1 mg/kg in assay [1] (setting [4]) and 9 mg/kg in assay [2] (sc).

Turning to `CC(=O)NCCS(=O)(=O)NC(C(=O)N[C@@H]1C(=O)N2C(C(=O)O)=C(CSc3nnnn3C)CS[C@H]12)c1csc(N)n1` (stereo partly drawn) [Testverbindung 43], the figures for the median effective dose (ED50) in assay [1] (setting [3]), in assay [1] (setting [4]) and in assay [2] (sc) were 8 mg/kg, 1 mg/kg and 50 mg/kg, respectively.

Take `CN(C)CCn1nnnc1SCC1=C(C(=O)O)N2C(=O)[C@@H](NC(=O)C(NS(=O)(=O)CCN)c3csc(N)n3)[C@H]2SC1` (stereo partly drawn) [Beispiel 20, 3-[1-(2-Dimethylaminoäthyl)-1H-tetrazol-5-ylthiomethyl]-7ß-[(2R,S)-2-(2-aminoäthansulfonylamino)-2-(2-aminothiazol-4-yl)-acetamido]-3-cephem-4-carbonsäure]: the “ED50 Escherichia coli 205” value in assay [1] (p.o.) is 8 mg/kg; in assay [1] (s.c.), 0,8 mg/kg. Also, the “ED50 Staphylococcus aureus 10 B” value in assay [2] is listed as above 30 mg/kg.

One may read the ED50 as the midpoint of the dose-response relation. Read a high ED50 as weaker potency.
